# From PubChem BioAssay AID1963825 (Molecular Pharmacology Branch, DTP, NCI, 2024)
# Assay: Anticancer human tumor 997537-175-T-J1-PDC patient-derived colon adenocarcinoma cell line growth inhibition [POLQ]
# Conditions: 997537-175-T-J1-PDC complex spheroid viability, combination with POLQ inhibitors; for IC50: curve of first compound; for viability, T/C: stronger effect = lower value
# Summary of the method: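 Growth inhibition in 3D: complex spheroids (tumor PDC, HUVEC, MSC) treated with POLQ inhibitor combinations; where Cmax unknown, highest tested concentration 10 microM, except SN-38 at 1 microM.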
# [1] = second compound 0.0316 µM, first compound 0.0316 µM
# [2] = second compound 0.0316 µM, first compound 0.1 µM
# [3] = second compound 0.0316 µM, first compound 0.316 µM
# [4] = second compound 0.0316 µM, first compound 1 µM
# [5] = second compound 0.0316 µM, first compound 3.16 µM
# [6] = second compound 0.0316 µM, first compound 10 µM
# [7] = second compound 0.1 µM, first compound 0.0316 µM
# [8] = second compound 0.1 µM, first compound 0.1 µM
# [9] = second compound 0.1 µM, first compound 0.316 µM
# [10] = second compound 0.1 µM, first compound 1 µM
# [11] = second compound 0.1 µM, first compound 3.16 µM
# [12] = second compound 0.1 µM, first compound 10 µM
# [13] = second compound 0.316 µM, first compound 0.0316 µM
# [14] = second compound 0.316 µM, first compound 0.1 µM
# [15] = second compound 0.316 µM, first compound 0.316 µM
# [16] = second compound 0.316 µM, first compound 1 µM
# [17] = second compound 0.316 µM, first compound 3.16 µM
# [18] = second compound 0.316 µM, first compound 10 µM
# [19] = second compound 1 µM, first compound 0.0316 µM
# [20] = second compound 1 µM, first compound 0.1 µM
# [21] = second compound 1 µM, first compound 0.316 µM
# [22] = second compound 1 µM, first compound 1 µM
# [23] = second compound 1 µM, first compound 3.16 µM
# [24] = second compound 1 µM, first compound 10 µM
# [25] = second compound 3.16 µM, first compound 0.0316 µM
# [26] = second compound 3.16 µM, first compound 0.1 µM
# [27] = second compound 3.16 µM, first compound 0.316 µM
# [28] = second compound 3.16 µM, first compound 1 µM
# [29] = second compound 3.16 µM, first compound 3.16 µM
# [30] = second compound 3.16 µM, first compound 10 µM
# [31] = second compound 10 µM, first compound 0.0316 µM
# [32] = second compound 10 µM, first compound 0.1 µM
# [33] = second compound 10 µM, first compound 0.316 µM
# [34] = second compound 10 µM, first compound 1 µM
# [35] = second compound 10 µM, first compound 3.16 µM
# [36] = second compound 10 µM, first compound 10 µM
# 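Further: luminescence signal used as a surrogate for viable cells; spheroids exposed to drugs for seven days before readout.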
smiles,measurement,setting,value
COc1cc(C2c3cc4c(cc3C(OC3OC5COC(C)OC5C(O)C3O)C3COC(=O)C23)OCO4)cc(OC)c1O (stereo unspecified) + COC1C(OC(N)=O)C(O)C(Oc2ccc3c(O)c(NC(=O)c4ccc(O)c(CC=C(C)C)c4)c(=O)oc3c2C)OC1(C)C,IC50,second compound 0.0316 µM,> 10 µM
same,IC50,second compound 0.1 µM,> 10 µM
same,IC50,second compound 0.316 µM,> 10 µM
same,IC50,second compound 1 µM,> 10 µM
same,IC50,second compound 3.16 µM,> 10 µM
same,IC50,second compound 10 µM,> 10 µM
same,"viability, T/C",[1],99.8%
same,"viability, T/C",[2],95%
same,"viability, T/C",[3],93.1%
same,"viability, T/C",[4],89.9%
same,"viability, T/C",[5],74.7%
same,"viability, T/C",[6],67.3%
same,"viability, T/C",[7],103%
same,"viability, T/C",[8],114%
same,"viability, T/C",[9],99.3%
same,"viability, T/C",[10],93.7%
same,"viability, T/C",[11],60.2%
same,"viability, T/C",[12],88.5%
same,"viability, T/C",[13],97.3%
same,"viability, T/C",[14],107%
same,"viability, T/C",[15],99.2%
same,"viability, T/C",[16],108%
same,"viability, T/C",[17],92.3%
same,"viability, T/C",[18],53.3%
same,"viability, T/C",[19],93.5%
same,"viability, T/C",[20],105%
same,"viability, T/C",[21],110%
same,"viability, T/C",[22],83.9%
same,"viability, T/C",[23],88.8%
same,"viability, T/C",[24],55.5%
same,"viability, T/C",[25],109%
same,"viability, T/C",[26],107%
same,"viability, T/C",[27],87.7%
same,"viability, T/C",[28],104%
same,"viability, T/C",[29],63.5%
same,"viability, T/C",[30],67.8%
same,"viability, T/C",[31],106%
same,"viability, T/C",[32],107%
same,"viability, T/C",[33],108%
same,"viability, T/C",[34],100%
same,"viability, T/C",[35],84.9%
same,"viability, T/C",[36],66.1%
COc1cccc2c1C(=O)c1c(O)c3c(c(O)c1C2=O)CC(O)(C(=O)CO)CC3OC1CC(N)C(O)C(C)O1 (stereo unspecified) + COC1C(OC(N)=O)C(O)C(Oc2ccc3c(O)c(NC(=O)c4ccc(O)c(CC=C(C)C)c4)c(=O)oc3c2C)OC1(C)C,IC50,second compound 0.0316 µM,2.49 µM
same,IC50,second compound 0.1 µM,1.66 µM
same,IC50,second compound 0.316 µM,2.22 µM
same,IC50,second compound 1 µM,3.23 µM
same,IC50,second compound 3.16 µM,2.03 µM
same,IC50,second compound 10 µM,2.77 µM
same,"viability, T/C",[1],114%
same,"viability, T/C",[2],100%
same,"viability, T/C",[3],98%
same,"viability, T/C",[4],84.8%
same,"viability, T/C",[5],40.2%
same,"viability, T/C",[6],7.93%
same,"viability, T/C",[7],102%
same,"viability, T/C",[8],114%
same,"viability, T/C",[9],95.6%
same,"viability, T/C",[10],75.4%
same,"viability, T/C",[11],18.1%
same,"viability, T/C",[12],10.4%
same,"viability, T/C",[13],101%
same,"viability, T/C",[14],99.8%
same,"viability, T/C",[15],102%
same,"viability, T/C",[16],96.6%
same,"viability, T/C",[17],29.2%
same,"viability, T/C",[18],8.56%
same,"viability, T/C",[19],94.7%
same,"viability, T/C",[20],89.8%
same,"viability, T/C",[21],88%
same,"viability, T/C",[22],95.1%
same,"viability, T/C",[23],50.8%
same,"viability, T/C",[24],9.76%
same,"viability, T/C",[25],106%
same,"viability, T/C",[26],119%
same,"viability, T/C",[27],75.4%
same,"viability, T/C",[28],77.6%
same,"viability, T/C",[29],34.8%
same,"viability, T/C",[30],13.1%
same,"viability, T/C",[31],96.5%
same,"viability, T/C",[32],99.3%
same,"viability, T/C",[33],107%
same,"viability, T/C",[34],97.4%
same,"viability, T/C",[35],43.9%
same,"viability, T/C",[36],7.86%
O=c1[nH]cc(F)c(=O)[nH]1 + COC1C(OC(N)=O)C(O)C(Oc2ccc3c(O)c(NC(=O)c4ccc(O)c(CC=C(C)C)c4)c(=O)oc3c2C)OC1(C)C,IC50,second compound 0.0316 µM,> 10 µM
same,IC50,second compound 0.1 µM,> 10 µM
same,IC50,second compound 0.316 µM,> 10 µM
same,IC50,second compound 1 µM,> 10 µM
same,IC50,second compound 3.16 µM,> 10 µM
same,IC50,second compound 10 µM,> 10 µM
same,"viability, T/C",[1],102%
same,"viability, T/C",[2],102%
same,"viability, T/C",[3],112%
same,"viability, T/C",[4],87.8%
same,"viability, T/C",[5],78.7%
same,"viability, T/C",[6],76.2%
same,"viability, T/C",[7],86.3%
same,"viability, T/C",[8],104%
same,"viability, T/C",[9],104%
same,"viability, T/C",[10],114%
same,"viability, T/C",[11],102%
same,"viability, T/C",[12],90.3%
same,"viability, T/C",[13],95.3%
same,"viability, T/C",[14],103%
same,"viability, T/C",[15],105%
same,"viability, T/C",[16],87.7%
same,"viability, T/C",[17],85.2%
same,"viability, T/C",[18],97.2%
same,"viability, T/C",[19],96.7%
same,"viability, T/C",[20],108%
same,"viability, T/C",[21],110%
same,"viability, T/C",[22],89.9%
same,"viability, T/C",[23],92.2%
same,"viability, T/C",[24],87.5%
same,"viability, T/C",[25],108%
same,"viability, T/C",[26],104%
same,"viability, T/C",[27],101%
same,"viability, T/C",[28],101%
same,"viability, T/C",[29],103%
same,"viability, T/C",[30],92.6%
same,"viability, T/C",[31],95.8%
same,"viability, T/C",[32],98.2%
same,"viability, T/C",[33],95.3%
same,"viability, T/C",[34],84.2%
same,"viability, T/C",[35],96.9%
same,"viability, T/C",[36],85.3%
